Measured values as given in paper PMC7956476, “Quinoline Functionalized Schiff Base Silver (I) Complexes: Interactions with Biomolecules and In Vitro Cytotoxicity, Antioxidant and Antimicrobial Activities” (Molecules, 2021).

What was measured:
[1] = test system: calf thymus DNA (CT-DNA); experiment: CT-DNA electronic absorption titration (Wolfe–Shimer); format: binding; details: intrinsic binding constant, absorption titration, PBS pH 7.2
[2] = test system: Pseudomonas aeruginosa ATCC 27853; experiment: Minimum inhibitory concentration (MIC), spotting on Müeller–Hinton agar; format: cell-based; details: Gram − Ve; P. aeruginosa; 37 °C, 18 h
[3] = test system: Salmonella typhimurium ATCC 14026; experiment: as above; format: cell-based; details: Gram − Ve; S. typhi; 37 °C, 18 h
[4] = test system: Staphylococcus aureus ATCC 700699 (methicillin-resistant); experiment: as above; format: cell-based; details: Gram + Ve; methicillin-resistant S. aureus; 37 °C, 18 h
[5] = test system: Escherichia coli ATCC 25922; experiment: as above; format: cell-based; details: Gram − Ve; E. coli; 37 °C, 18 h
[6] = test system: Staphylococcus aureus ATCC 25923; experiment: as above; format: cell-based; details: Gram + Ve; S. aureus; 37 °C, 18 h

Structure (SMILES) | CT-DNA-Cmp. Kb (M^−1) × 10^5 [1] | Minimum inhibitory concentration, PA [2] [µg/mL] | Minimum inhibitory concentration, ST [3] [µg/mL] | Minimum inhibitory concentration, MRSA [4] [µg/mL] | Minimum inhibitory concentration, EC [5] [µg/mL] | Minimum inhibitory concentration, SA [6] [µg/mL]
[Ag+].[O-][Cl+3]([O-])([O-])[O-].c1ccc2nc(-c3nc4ccccc4s3)ccc2c1.c1ccc2nc(-c3nc4ccccc4s3)ccc2c1 [Complex Q7, [Ag(L2)2]ClO4] | 15.0 (M^−1) × 10^5 | 0.2 | 50 | 50 | 25 | 1.6
Cc1ccc(N=Cc2ccc3ccccc3n2)cc1.Cc1ccc(N=Cc2ccc3ccccc3n2)cc1.[Ag+].[O-][Cl+3]([O-])([O-])[O-] [Complex Q9, [Ag(L4)2]ClO4] | 5.00 (M^−1) × 10^5 | – | 50 | 1000 | 12.5 | 50
